Laboratory results published in US9072728B2, “Treatment of severe distal colitis” (priority 2003, dated 2015).

Tests used:
[1] = test system: IL-8 secretion in Calu-3 cells; assay: IL-8 in basolateral supernatants of Calu-3 cells (ELISA); assay type: cell-based; details: for inhibition of secreted IL-8: Calu-3 cells stimulated with Salmonella, 30 μM test compound, 5 hours, FIG. 4
Procedure: Calu-3 cells were plated at subconfluency onto Costar inserts (3.0 μm membrane pore size) using standard techniques. After 24 hours, the apical well media was aspirated, and the Calu-3 cells were permitted to grow at the air/media interface. Basolateral media was changed every 2-3 days until they had grown into confluent monolayers (typically 7-10 days). Pathogenic Salmonella typhi were grown in Luria's both overnight at 37° C. (on the night prior to experimentation). The bacteria were washed twice in approximately 20 ml Hanks Balanced Salt Solution (HBSS). Prior to use, bacteria were spun down and resuspended in a total of 10 ml HBSS.
On the day of experimentation, inserts were washed in HBSS and placed into wells containing HBSS with either vehicle (0.0015% ethanol) or 30 μM of specific imidazole or non-imidazole containing test compound (all compounds were diluted from 20 mM working stock). 200 μL of bacteria were then loaded onto the apical compartment, and the cells were allowed to incubate for 5 hours. The basolateral buffer solutions from each insert were subsequently aspirated into eppendorfs and stored at −20° C. Calu-3 filters were cut and rotated for 30 minutes in 250 μL of lysis buffer [10 mL of PBS containing 1 Complete Protease Inhibitor Cocktail Tablet (Roche Pharmaceuticals) tablet and […]] at 4° C., spun at 14,000 for 20 minutes, and the clarified supernatant was stored at −20° C. Supernatant and lysate IL-8 protein content was measured by ELISA using standard techniques.

[2] = oral CLT 60-90 mg/Kg body weight/day; cited from earlier work
[3] = cited from earlier work
[4] = cited from earlier work; remark: listed apart in the source
[5] = test system: IL-8 secretion from cultured intestinal (T84) epithelia; assay: IL-8 secretion from cultured intestinal epithelial T84 cells; assay type: cell-based; details: T84 cells 30 minutes with CLT (30 μM) prior to stimulation with PMA, TNF or Salmonella typhimurium; each agonist; FIG. 3
Procedure: Intestinal epithelial cells play an active role in the mediation of intestinal inflammation through the production and regulated secretion of a variety of pro-inflammatory cytokines including IL-8. […] In these experiments, cultured intestinal epithelial T84 cells were incubated for 30 minutes with CLT (30 μM) prior to stimulation with either the protein kinase C stimulator PMA, the pro-inflammatory cytokine TNF, or a strain of pathogenic Salmonella typhimurium.

IL-8 within Calu-3 cells = assay: IL-8 in Calu-3 cell lysates (ELISA); assay type: cell-based; details: FIG. 5
[6] = Serum CLT levels after rectal CLT suppositories (HPLC assay); assay type: in vivo, human
Procedure: (§1) The safety and efficacy of topical CLT therapy was also evaluated (delivered as a rectal suppository) in pediatric and adult patients with active pouchitis. In this study, subjects progressed through three escalating dosing levels: Step A (500 mg rectal suppositories applied twice daily); Step B (750 mg rectal suppositories applied twice daily); Step C (1,500 mg delivered twice daily). Serum levels (measured using a previously validated HPLC assay) were obtained within 3 to 6 hours after administering the morning (8 AM) dose of CLT and are presented in Table 2.

[7] = test system: human PMN transmigration across intestinal T84 cell monolayers; assay: PMN transmigration across intestinal T84 cell monolayers (in-vitro model of colitis); assay type: cell-based; details: for attenuation of PMN transepithelial migration: FIG. 2A, 2B
Text: Recruitment of polymorphonuclear neutrophils (PMN's) across intestinal epithelia and into the lumen, resulting in mucosal ulcerations or frank crypt abscesses, occurs in a broad spectrum of infectious, inflammatory, and allergic diarrheal states, including patients with inflammation of surgically constructed ileal reservoirs (“pouchitis”). The transmigration of PMN's across the epithelial barrier represents the pathognomonic feature of acute and active chronic intestinal inflammation. Since CLT has been previously shown to inhibit PMN chemotaxis in-vitro, this study tested if CLT may also be efficacious in attenuating PMN transmigration in an established in-vitro model of colitis using intestinal T84 cell monolayers.
The efficacy of CLT was compared to other antibiotic (metronidazole) and steroid (prednisone) agents that currently represent the standards of care for the topical or systemic therapy of pouchitis. […] […] As such, topical CLT treatment represents an attractive alternative for patients whose pouchitis disease has proven to be refractory to standard antibiotic or anti-inflammatory regimens. CLT may inhibit PMN transmigration by inhibiting the operation of plasma membrane K^+ or Ca^++ channels that are likely required to accommodate the volume changes necessary for PMN transmigration through epithelial intercellular tight junctions.

[8] = Safety laboratory data for CLT retention enemas; assay type: in vivo, human; details: change from baseline; retention enemas daily 3500-4000 mg; n=9
Procedure: In addition to efficacy data, safety data was also gathered for the use of CLT in retention enemas administered daily in a dose of 3500-4000 mg in the same group of patients. The following parameters were measured: urea nitrogen, Creatinine, aspartate aminotransferase (AST or SGOT), alanine aminotransferase (ALT or SGPT), alkaline phosphatase (Alk Phos), Total Bilirubin, Direct Bilirubin, Albumin, and Hematocrit.

[9] = cited from earlier work; remark: listed apart in the source
[10] = test system: pediatric and adult patients with active pouchitis; assay: Safety and clinical outcome of rectal CLT suppositories, open-labeled dose escalating trial; assay type: in vivo, human
Procedure: as §1
Rectal CLT delivered as a suppository, toxicity.
(§2) In this study, subjects were treated with escalating doses of study drug: Step A (500 mg rectal suppositories applied twice daily); Step B (750 mg rectal suppositories applied twice daily); Step C (1,500 mg delivered twice daily). Few parameters were measured including fecal lactoferrin, a marker of white blood cell excretion, to assess the effects of topical CLT therapy on PMN transmigration in patients with pouchitis. This assay has been previously validated as a quantitative biochemical measure of PMN transmigration in patients with infectious colitis and inflammatory bowel disease.

[11] = oral CLT; mice, rats, and rabbits; cited from earlier work
[12] = test system: fecal lactoferrin, a marker of white blood cell excretion (PMN transmigration); assay: Fecal lactoferrin in pouchitis patients treated with CLT suppositories; assay type: in vivo, human; details: in 6 of 8 subjects studied; rectal suppository
Procedure: as §2

[13] = oral CLT, experimental animals; cited from earlier work
[14] = after application of one vaginal tablet
[15] = PMN's and T84 cells incubated with 30 μM of study drug for 30 minutes

c1c[nH]cn1 [imidazole]
inhibition of secreted IL-8 [1]: Considerably less inhibition

Clc1ccccc1C(c1ccccc1)(c1ccccc1)n1ccnc1 [CLT, clotrimazole]
patients reporting gastrointestinal complaints (nausea, vomiting, and diarrhea) [2]: 13% | patients who developed chemical cystitis [2]: 4.4% | patients who developed contact dermatitis [2]: 2.2% | patients who found the therapy intolerable [2]: 6.5% | patients who tolerated CLT therapy moderately well [2]: 18.5% | patients who tolerated CLT therapy well [2]: 64% | serum CLT levels on continued therapy ([3]; after one week of continued daily therapy with oral tablets): seemed to decline | adverse effect after first dose ([3]; normal volunteers, oral CLT in oil form, first dose of 1,000 mg): severe vertigo | time to disappearance of all neurological symptoms after discontinuing CLT therapy ([3]; normal volunteers, oral CLT in oil form): ≤ 24 hours | side effects of mucosal preparations ([4]; 1% vaginal cream, 100 mg and 500 mg tablets): minimal side effects | concurrent plasma levels [4, 14]: lower than 0.01 μg/ml | time fungicidal concentrations of CLT detected in vaginal fluid [4, 14]: up to 3 days | central nervous system abnormalities ([4]; topical application of CLT): No central nervous system abnormalities | IL-8 secretion [5]: inhibited completely | effect on intracellular IL-8 (IL-8 within Calu-3 cells; PMA stimulation): no effect | decrease in IL-8 in Calu-3 cell lysates (IL-8 within Calu-3 cells; Salmonella stimulation, 30 μM test compound, 5 hours): virtually no decrease | Serum CLT levels, Step A ([6]; 500 mg rectal suppositories twice daily, 3 to 6 hours after morning dose, one line per subject): below the level of detection | systemic absorption from ileal pouches (measured as serum CLT concentration) ([6]; rectal suppository): generally poor systemic absorption | serum CLT level at the time of renal diagnosis ([6]; subject two, CLT suppositories): 0.08 µM | attenuation of PMN transepithelial migration [7, 15]: more potent | inhibition of transepithelial migration ([7]; incubation of T84 monolayers alone with CLT, prior to layering of untreated PMN's, compared with PMN pretreatment, FIG. 1): equal or greater extent | PMN transmigration ([7]; pretreatment of PMN's alone with CLT (30 μM) for 30 minutes, FIG. 1): inhibited significantly | ALBUMIN, Change, MAX [8]: 1.1 G/DI | ALBUMIN, Change, MEAN [8]: 0.1 G/DI | ALBUMIN, Change, MEDIAN [8]: 0.0 G/DI | ALBUMIN, Change, MIN [8]: −0.4 G/DI | ALKALINE PHOSPHATASE, Change, MAX [8]: 37.0 U/L | ALKALINE PHOSPHATASE, Change, MEAN [8]: −2.4 U/L | ALKALINE PHOSPHATASE, Change, MEDIAN [8]: 1.0 U/L | ALKALINE PHOSPHATASE, Change, MIN [8]: −60.0 U/L | CREATININE, Change, MAX [8]: 0.1 mg/dL | CREATININE, Change, MEAN [8]: -0.0 mg/dL | CREATININE, Change, MEDIAN [8]: -0.1 mg/dL | CREATININE, Change, MIN [8]: -0.2 mg/dL | DIRECT BILIRUBIN, Change, MAX [8]: 0.1 mg/dL | DIRECT BILIRUBIN, Change, MEAN [8]: -0.0 mg/dL | DIRECT BILIRUBIN, Change, MEDIAN [8]: 0.0 mg/dL | DIRECT BILIRUBIN, Change, MIN [8]: -0.1 mg/dL | HEMATOCRIT, Change, MAX [8]: 5.9% | HEMATOCRIT, Change, MEAN [8]: −0.5% | HEMATOCRIT, Change, MEDIAN [8]: 0.5% | HEMATOCRIT, Change, MIN [8]: −4.7% | SGOT (AST), Change, MAX [8]: 8.0 U/L | SGOT (AST), Change, MEAN [8]: −2.2 U/L | SGOT (AST), Change, MEDIAN [8]: −1.0 U/L | SGOT (AST), Change, MIN [8]: −16.0 U/L | SGPT (ALT), Change, MAX [8]: 8.0 U/L | SGPT (ALT), Change, MEAN [8]: 0.9 U/L | SGPT (ALT), Change, MEDIAN [8]: 0.0 U/L | SGPT (ALT), Change, MIN [8]: −6.0 U/L | TOTAL BILIRUBIN, Change, MAX [8]: 0.2 mg/dL | TOTAL BILIRUBIN, Change, MEAN [8]: -0.0 mg/dL | TOTAL BILIRUBIN, Change, MEDIAN [8]: 0.0 mg/dL | TOTAL BILIRUBIN, Change, MIN [8]: -0.5 mg/dL | UREA NITROGEN (BUN), Change, MAX [8]: 4.0 mg/dL | UREA NITROGEN (BUN), Change, MEAN [8]: 0.1 mg/dL | UREA NITROGEN (BUN), Change, MEDIAN [8]: 0.0 mg/dL | UREA NITROGEN (BUN), Change, MIN [8]: -5.0 mg/dL | serum levels ([9]; adults, oral dose of 200 mg of CLT): 200 to 350 ng/mL | drug excreted unchanged in the urine ([9]; oral CLT): only a small fraction | route of elimination ([9]; oral CLT): largely in the feces via biliary excretion | blood levels in oil solvent relative to tablet forms ([9]; oral, drug delivered in an oil solvent vs tablet): 3-4 times higher | adverse effect of CLT therapy ([10]; subject one): no significant adverse effect | changes in urinary sediment or serum BUN or creatinine values ([10]; subjects other than ZP): No other subjects participating in the study demonstrated any significant changes | tolerability ([10]; topical CLT delivered as a rectal suppository, pediatric and adult patients): generally well tolerated | inhibition of secreted IL-8 [1]: High level of IL-8 inhibition | IL-8 in supernatants, time-course ([1]; at 5 hours, Calu-3 cells pretreated, FIGS. 6 and 7): no IL-8 in the supernatants | LD50 [11]: 700-1,000 mg/Kg | reduction of PMN excretion (fecal lactoferrin) [12]: 77% | subacute and chronic toxicity, organs involved [13]: liver (degenerative changes) and the adrenal gland (increased fat deposition) | time to reversal of liver and adrenal changes after discontinuation of therapy [13]: ≤ 6 months

CCC(C)n1ncn(-c2ccc(N3CCN(c4ccc(OCC5COC(Cn6cncn6)(c6ccc(Cl)cc6Cl)O5)cc4)CC3)cc2)c1=O (stereo not shown) [itraconazole]
inhibition of secreted IL-8 [1]: No inhibition

C[C@]12C=CC(=O)C=C1CC[C@@H]1[C@@H]2C(=O)C[C@@]2(C)[C@H]1CC[C@]2(O)C(=O)CO [prednisone]
attenuation of PMN transepithelial migration [7, 15]: no attenuation

Cc1ncc([N+](=O)[O-])n1CCO [metronidazole]
inhibition of PMN transmigration ([7]; PMN's and T84 cells incubated with 30 μM of study drug for 30 minutes, FIG. 2B): 30-40%

OC(Cn1cncn1)(Cn1cncn1)c1ccc(F)cc1F [fluconazole]
inhibition of secreted IL-8 [1]: Considerably less inhibition
